Consider three compounds from patent publication US20240150301A1, “METHODS OF MODULATING ANDROGEN RECEPTOR CONDENSATES” (ETERN BIOPHARMA (SHANGHAI) CO., LTD., priority 2021, published 2024).

The target of test [1] is T1, AR V7 (Homo sapiens, UniProt P10275).
T1 sequence (P10275 1-644 isoform P10275-3): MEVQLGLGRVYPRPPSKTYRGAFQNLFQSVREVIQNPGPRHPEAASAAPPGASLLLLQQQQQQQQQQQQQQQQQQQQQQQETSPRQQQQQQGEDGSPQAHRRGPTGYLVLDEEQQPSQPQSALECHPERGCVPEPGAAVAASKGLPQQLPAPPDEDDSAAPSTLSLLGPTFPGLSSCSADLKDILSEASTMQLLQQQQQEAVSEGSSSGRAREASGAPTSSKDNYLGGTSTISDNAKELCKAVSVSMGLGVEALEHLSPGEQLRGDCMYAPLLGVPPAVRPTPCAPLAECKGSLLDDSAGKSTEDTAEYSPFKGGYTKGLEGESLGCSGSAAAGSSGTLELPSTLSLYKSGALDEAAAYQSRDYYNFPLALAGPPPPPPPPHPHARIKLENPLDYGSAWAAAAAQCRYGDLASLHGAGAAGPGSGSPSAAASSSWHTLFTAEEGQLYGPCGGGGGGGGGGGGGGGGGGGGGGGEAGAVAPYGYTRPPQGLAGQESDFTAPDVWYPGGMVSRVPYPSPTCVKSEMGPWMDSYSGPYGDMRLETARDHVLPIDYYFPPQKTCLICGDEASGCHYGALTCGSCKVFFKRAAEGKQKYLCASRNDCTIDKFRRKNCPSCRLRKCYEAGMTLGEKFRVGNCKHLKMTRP
In words: ARE-luciferase reporter assay in 22Rv1 cells (endogenous AR-V7). Format: cell-based. Also on record: 22Rv1(Cobioer) prostate cancer cell line, which expresses endogenous AR-V7; host or cells: 22Rv1. The note with it: 22Rv1, hormone-starved, 24 h; read-out: 22Rv1 ARE-luc IC50. As to the method:
The ARE-luciferase reporter plasmid contains functional AREs (androgen response elements) to which AR binds in response to androgen to induce luciferase activity. LNCaP (Cobioer) cells were transiently transfected with the ARE-luciferase reporter in charcoal stripped FBS/phenol red-free RPMI medium prior to treatment for 24 hours. Then DMSO or test compounds with serial diluted concentrations were added one hour prior to the addition of DHT(1 nM). After 24 h of incubation with DHT, cells were lysed and luciferase activity was assayed using the ONE-Glo™ Luciferase Assay System (Promega) and measured using EnVision Multimode Plate Reader, according to manufacturer's instructions. Values were normalized to cell viability determined by CellTiter-Glo® Luminescent Cell Viability Assay Kit (Promega). […] GraphPad Prism graphing software was used to calculate IC50 values.
To evaluate the transcriptional activity of AR-V7, HEK293T(Cobioer) cells were transiently cotransfected with an expression vector for AR-V7 and the ARE-luciferase reporter in hormone-starved conditions. For 22Rv1(Cobioer) prostate cancer cell line, which expresses endogenous AR-V7, ARE-luciferase reporter was transiently transfected in hormone-starved conditions. 24 h after transfection, DMSO or test compounds with serial diluted concentrations were added for additional 24 h incubation. Reporter activity was detected and normalized by cell viability as described above. Treatments were normalized to DMSO control activity, and IC50 values were further determined via GraphPad Prism graphing software.

The target in test [2] is T2, AR F877L/T878A (Homo sapiens, UniProt P10275, F877L/T878A).
T2 construct: expressed in transfected cells; host or cells: LNCaP
T2 sequence (P10275 1-920 F877L/T878A): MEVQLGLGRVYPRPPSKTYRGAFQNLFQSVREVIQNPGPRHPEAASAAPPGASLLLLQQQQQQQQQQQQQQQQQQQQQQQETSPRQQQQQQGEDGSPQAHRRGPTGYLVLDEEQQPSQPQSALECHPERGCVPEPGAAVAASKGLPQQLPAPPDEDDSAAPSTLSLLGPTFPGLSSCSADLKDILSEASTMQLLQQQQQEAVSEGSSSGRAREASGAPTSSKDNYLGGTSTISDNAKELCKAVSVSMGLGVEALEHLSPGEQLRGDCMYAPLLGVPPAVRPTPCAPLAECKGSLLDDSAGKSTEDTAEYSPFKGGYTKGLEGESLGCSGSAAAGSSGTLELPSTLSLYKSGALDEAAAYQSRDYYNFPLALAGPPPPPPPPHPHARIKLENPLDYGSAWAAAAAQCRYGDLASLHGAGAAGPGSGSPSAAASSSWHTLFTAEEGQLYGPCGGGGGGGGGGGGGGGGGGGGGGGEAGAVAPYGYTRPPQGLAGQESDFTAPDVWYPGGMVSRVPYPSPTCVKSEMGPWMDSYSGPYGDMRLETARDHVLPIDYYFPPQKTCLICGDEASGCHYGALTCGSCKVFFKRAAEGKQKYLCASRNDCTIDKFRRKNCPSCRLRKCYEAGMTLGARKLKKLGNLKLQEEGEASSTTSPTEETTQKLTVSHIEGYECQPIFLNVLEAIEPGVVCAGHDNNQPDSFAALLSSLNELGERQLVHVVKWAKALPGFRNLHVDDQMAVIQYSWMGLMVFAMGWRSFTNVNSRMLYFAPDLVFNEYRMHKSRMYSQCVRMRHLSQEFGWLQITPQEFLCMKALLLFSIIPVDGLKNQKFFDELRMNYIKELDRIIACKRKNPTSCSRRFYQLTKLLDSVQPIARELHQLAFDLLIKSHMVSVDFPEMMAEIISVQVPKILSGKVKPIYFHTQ
Kind of test: Live-cell imaging of AR puncta (LLPS) in LNCaP cells, AR F877L/T878A-mEGFP. Format: cell-based. To be noted: 10 μM compound, 1 nM DHT. As to the method: Cells were grown on 24-well glass bottom plate (Cellvis, P24-1.5H-N) and images were taken with the Leica TCS SP8 confocal microscopy system using a 100× oil objective (NA=1.4). Cells were imaged on a heated stage (37° C.) and supplemented with warmed (37° C.) humidified air. The microscope was enclosed in an incubation chamber heated to 37° C.
For compounds treatment assay, LNCaP cells were transfected with an expression vector for AR (AR or AR F877L/T878A)-mEGFP using steroid hormone-free and phenol red-free RPMI media for 24 hours before compound treatment. After 10 μM compounds treatment for 3 hour, LNCaP cells were added with 1 nM DHT. For ligand-independent AR V7-mEGFP expressing LNCaP cells, starvation step is skipped and compounds were added 12 hours after transfection. The final concentration of DMSO was 0.1%. Cells were subjected to microscopic observation every 30 mins after DHT/compounds were added.
Data was analyzed by images collected from 100 representative fields in each group. The spots quantification was performed based on the area and intensity of the spots through green (AR-mEGFP) channel. Fluorescent images were processed and assembled into figures using LAS X (Leica) and Fiji.
After 10 μM compounds treatment for 3 hour, LNCaP cells were added with 1 nM DHT. […]

“Also recorded” adds a separate entry of the source. Where only a bound is given, the exact number is not on record here.

The IC50 is the concentration that inhibits the measured activity by half.

With `CC(C)(c1ccc(OCc2ccnc(N=S3(=O)CCNCC3)n2)cc1)c1cc(Cl)c(OCCCl)c(C#N)c1` [Compound 6, 3-chloro-2-(2-chloroethoxy)-5-(2-(4-((2-((1-oxido-1λ^6-thiomorpholin-1-ylidene)amino)pyrimidin-4-yl)methoxy)phenyl)propan-2-yl)benzonitrile], in test [1], the IC50 was 8.6 µM.

Take `CC(C)(c1ccc(OCc2ccnc(NS(C)(=O)=O)n2)cc1)c1cc(Cl)c(OCCCl)c(C#N)c1` [Compound AA, N-(4-((4-(2-(3-chloro-4-(2-chloroethoxy)-5-cyanophenyl)propan-2-yl)phenoxy)methyl)pyrimidin-2-yl) methane sulfonamide, reference compound]: the IC50 in test [1] was > 20 µM.

For the compound `CC(C)(c1ccc(C#Cc2cnc(NS(C)(=O)=O)nc2)cc1)c1cc(Cl)c(OCCCl)c(C#N)c1` [Compound 60, N-(5-((4-(2-(3-chloro-4-(2-chloroethoxy)-5-cyanophenyl)propan-2-yl)phenyl)ethynyl)pyrimidin-2-yl)methanesulfonamide], the “puncta formation / LLPS of enzalutamide-resistant AR mutant F877L/T878A” value in test [2] is “could suppress the phase separation; also recorded: abolished the puncta formation; also recorded: impaired the LLPS”.
